Structures are written as SMILES. Where “and” joins values, the source holds several entries; their conditions need not be identical. Identical values can stand only once. Toxic doses and inconclusive results are not listed.

For this assay, the system named is P388 leukemia ip, CD2F1 mice, survival T/C. In words: NCI In Vivo Anticancer Drug Screen. Data for tumor model P388 Leukemia (intraperitoneal) in CD2F1 (CDF1) mice. As to conditions: endpoint: median survival time, higher = longer survival. Summed up: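 Mice carrying the transplanted tumor received test compound or vehicle. Survival was recorded in each group, and the value is the treated-group measurement divided by that of the vehicle-treated control group.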

Setting [1] is: dose: 100.0 mg/kg/injection, schedule: Q01DX009 (ip), vehicle: Klucel (hydroxypropylcellulose) (HPC).
Where [2] appears, read: dose: 200.0 mg/kg/injection, schedule: Q01DX009 (ip), vehicle: Klucel (hydroxypropylcellulose) (HPC).
[3] abbreviates: dose: 25.0 mg/kg/injection, schedule: Q04DX003 (ip), vehicle: saline with Tween-80.
[4] abbreviates: dose: 50.0 mg/kg/injection, schedule: Q04DX003 (ip), vehicle: saline with Tween-80.
Where [5] appears, read: dose: 60.0 mg/kg/injection, schedule: Q01DX005 (ip), vehicle: saline with Tween-80.
Setting [6] is: dose: 120.0 mg/kg/injection, schedule: Q01DX005 (ip), vehicle: saline with Tween-80.
Setting [7] is: dose: 240.0 mg/kg/injection, schedule: Q01DX005 (ip), vehicle: saline with Tween-80.
[8] abbreviates: dose: 50.0 mg/kg/injection, schedule: Q01DX009 (ip), vehicle: saline.
The mark [9] stands for this setting: dose: 100.0 mg/kg/injection, schedule: Q01DX009 (ip), vehicle: saline.
The mark [10] stands for this setting: dose: 200.0 mg/kg/injection, schedule: Q01DX009 (ip), vehicle: saline.
[11] abbreviates: dose: 50.0 mg/kg/injection, schedule: Q01DX009 (ip), vehicle: Klucel (hydroxypropylcellulose) (HPC).
Setting [12] is: dose: 50.0 mg/kg/injection, schedule: Q01DX005 (ip), vehicle: Klucel (hydroxypropylcellulose) (HPC).
The mark [13] stands for this setting: dose: 100.0 mg/kg/injection, schedule: Q01DX005 (ip), vehicle: Klucel (hydroxypropylcellulose) (HPC).
Where [14] appears, read: dose: 200.0 mg/kg/injection, schedule: Q01DX005 (ip), vehicle: Klucel (hydroxypropylcellulose) (HPC).
Setting [15] is: dose: 25.0 mg/kg/injection, schedule: Q01DX009 (ip), vehicle: saline.

On to `CC1=C(c2ccccc2)OC(c2ccccc2)=C[P+]1(c1ccccc1)c1ccccc1`, for which the T/C by setting is: (dose: 1.56 mg/kg/injection, schedule: Q01DX005 (ip), vehicle: saline) 105 % of control; (dose: 3.12 mg/kg/injection, schedule: Q01DX005 (ip), vehicle: saline) 110 % of control.
Take `COc1c(CNC(=O)CCl)cc2[nH]c(C)cc2c1CNC(=O)CCl`: the T/C reads like this: under setting [1], 153 % of control; under setting [2], 150 % of control.
In the case of `c1ccc(CCN2COc3c(ccc4cccnc34)C2)cc1`, the T/C reads like this: under setting [3], 110 % of control; under setting [4], 110 % of control; (dose: 100.0 mg/kg/injection, schedule: Q04DX003 (ip), vehicle: saline with Tween-80) 100 % of control.
In the case of `CNc1nc(-c2ccc(C(C)(C)C)cc2)c(-c2ccc(C(C)(C)C)cc2)[nH]1`, the T/C runs as follows: (dose: 25.0 mg/kg/injection, schedule: Q04DX002 (ip), vehicle: saline with Tween-80) 117 % of control and 96 % of control; (dose: 50.0 mg/kg/injection, schedule: Q04DX002 (ip), vehicle: saline with Tween-80) 107 % of control and 121 % of control.
Regarding `CC(=O)N1c2ccccc2C(O)C1OC(=O)c1cccc(Cl)c1` (centres undefined), the T/C is 100 % of control under setting [5], 103 % of control under setting [6] and 89 % of control under setting [7].
With `Cn1nnc2c1CN=CN2`, the T/C under setting [8] was 117 % of control, the T/C under setting [9] was 103 % of control and the T/C under setting [10] was 112 % of control.
`O=C(/N=C1\N=Nc2nc(C(C(=O)c3cccs3)c3nc4n(c3O)/C(=N/C(=O)Nc3ccc(Cl)cc3)N=N4)c(O)n21)Nc1ccc(Cl)cc1` (centres undefined): the T/C is 95 % of control under setting [5], 95 % of control under setting [6] and 100 % of control under setting [7].
Regarding `NC(CC(=O)c1ccc(O)cc1)C(=O)O` (centres undefined), the T/C runs as follows: under setting [11], 99 % of control; under setting [1], 100 % of control; under setting [2], 92 % of control.
Take `N#C/C(=C/C=C/c1ccccc1)c1ccccc1`: the T/C is, setting by setting: under setting [12], 109 % of control; under setting [13], 102 % of control; under setting [14], 104 % of control.
As for `Cc1cc(OC(=O)c2c(C)cc(O)cc2O)cc(O)c1C(=O)O`, the T/C was 101 % of control (dose: 0.25 mg/kg/injection, schedule: Q01DX009 (ip), vehicle: saline with Tween-80); 102 % of control (dose: 0.5 mg/kg/injection, schedule: Q01DX009 (ip), vehicle: saline with Tween-80); 101 % of control (dose: 1.0 mg/kg/injection, schedule: Q01DX009 (ip), vehicle: saline with Tween-80).
Consider `CN(C)P(=O)(Oc1occc1C(C)(C)O)N(C)C`, for which the T/C is 100 % of control (dose: 7.5 mg/kg/injection, schedule: Q01DX005 (ip), vehicle: saline) and 102 % of control (dose: 15.0 mg/kg/injection, schedule: Q01DX005 (ip), vehicle: saline).
Take `Cc1ccc(S(=O)(=O)NCCCCCCNS(=O)(=O)c2ccc(C)cc2)cc1`: the T/C by setting is: under setting [12], 86 % of control and 90 % of control; under setting [13], 89 % of control; under setting [14], 86 % of control and 91 % of control.
With `CC(=O)Oc1c(C)[nH]ccc1=O`, the T/C under setting [15] was 103 % of control and 104 % of control; the T/C under setting [8] is 107 % of control and 112 % of control and 116 % of control; the T/C under setting [9] is 116 % of control; the T/C under setting [10] was 154 % of control; the T/C (dose: 400.0 mg/kg/injection, schedule: Q01DX009 (ip), vehicle: saline) is 152 % of control and 161 % of control and 179 % of control; the T/C (dose: 800.0 mg/kg/injection, schedule: Q01DX009 (ip), vehicle: saline) is 180 % of control.
Consider `CCN(CC)CCO[C@H]1CC[C@@]2(C)C(=CC[C@@H]3[C@@H]2CC[C@]2(C)C(=O)CC[C@@H]32)C1`, for which the T/C runs as follows: (dose: 5.0 mg/kg/injection, schedule: Q01DX009 (ip), vehicle: saline with Tween-80) 104 % of control; (dose: 5.0 mg/kg/injection, schedule: Q04DX003 (ip), vehicle: saline with Tween-80) 91 % of control; (dose: 10.0 mg/kg/injection, schedule: Q01DX009 (ip), vehicle: saline with Tween-80) 91 % of control; (dose: 10.0 mg/kg/injection, schedule: Q04DX003 (ip), vehicle: saline with Tween-80) 91 % of control; (dose: 20.0 mg/kg/injection, schedule: Q01DX009 (ip), vehicle: saline with Tween-80) 95 % of control; (dose: 20.0 mg/kg/injection, schedule: Q04DX003 (ip), vehicle: saline with Tween-80) 100 % of control.
As for `CC(C)N1CCN(c2ccncc2S(=O)(=O)N2CCCCC2)CC1`, the T/C is 89 % of control under setting [8], 96 % of control under setting [9] and 90 % of control under setting [10].
Consider `COc1ccc2c(OC)c(CC(=O)C(C)(C)O)c(=O)n(C)c2c1OC`, for which the T/C is 96 % of control (dose: 19.0 mg/kg/injection, schedule: Q01DX005 (ip), vehicle: Klucel (hydroxypropylcellulose) (HPC)); 92 % of control (dose: 38.0 mg/kg/injection, schedule: Q01DX005 (ip), vehicle: Klucel (hydroxypropylcellulose) (HPC)); 88 % of control (dose: 76.0 mg/kg/injection, schedule: Q01DX005 (ip), vehicle: Klucel (hydroxypropylcellulose) (HPC)); 91 % of control (dose: 152.0 mg/kg/injection, schedule: Q01DX005 (ip), vehicle: Klucel (hydroxypropylcellulose) (HPC)).
For `Nc1ncnc2c1cnn2CCCl`, the T/C was 95 % of control (dose: 6.25 mg/kg/injection, schedule: Q01DX009 (ip), vehicle: saline); 100 % of control (dose: 12.5 mg/kg/injection, schedule: Q01DX009 (ip), vehicle: saline); 100 % of control under setting [15].
Turning to `CC1OC(C)(c2ccc(Cl)c(O)c2)OC1C` (centres undefined), the T/C reads like this: under setting [5], 100 % of control; under setting [6], 102 % of control; under setting [7], 102 % of control.
On to `COc1cccc2c1C(=O)c1c(O)c3c(c(O)c1C2=O)CC(O)(C(=O)COC1CC(OC(C)=O)C(OC(C)=O)C(C)O1)CC3OC1CC(OC(C)=O)C(OC(C)=O)C(C)O1` (centres undefined), for which the T/C (dose: 3.13 mg/kg/injection, schedule: Q04DX003 (ip), vehicle: saline with Tween-80) is 100 % of control; the T/C (dose: 6.25 mg/kg/injection, schedule: Q04DX003 (ip), vehicle: saline with Tween-80) was 100 % of control; the T/C (dose: 12.5 mg/kg/injection, schedule: Q04DX003 (ip), vehicle: saline with Tween-80) was 100 % of control; the T/C under setting [3] was 95 % of control; the T/C under setting [4] was 100 % of control.
On to `O=C1CCCCC1C1(O)C(=O)Nc2ccccc21` (centres undefined), for which the T/C is 98 % of control (dose: 60.0 mg/kg/injection, schedule: Q01DX005 (ip), vehicle: saline); 89 % of control (dose: 120.0 mg/kg/injection, schedule: Q01DX005 (ip), vehicle: saline); 89 % of control (dose: 240.0 mg/kg/injection, schedule: Q01DX005 (ip), vehicle: saline).
`CCCCCN(CCCCC)CC(O)c1c(OC)ccc2ccccc12` (centres undefined): the T/C by setting is: (dose: 12.5 mg/kg/injection, schedule: Q01DX009 (ip), vehicle: Klucel (hydroxypropylcellulose) (HPC)) 102 % of control; (dose: 25.0 mg/kg/injection, schedule: Q01DX009 (ip), vehicle: Klucel (hydroxypropylcellulose) (HPC)) 103 % of control; under setting [11], 94 % of control.
Turning to `Cc1cccc(Oc2cnc(=O)[nH]c2)c1`, the T/C is 100 % of control (dose: 50.0 mg/kg/injection, schedule: Q01DX009 (ip), vehicle: saline with Tween-80); 93 % of control (dose: 100.0 mg/kg/injection, schedule: Q01DX009 (ip), vehicle: saline with Tween-80); 99 % of control (dose: 200.0 mg/kg/injection, schedule: Q01DX009 (ip), vehicle: saline with Tween-80).
On to `CC(=O)OCc1nc2ncnc(N)c2[nH]1`, for which the T/C is 99 % of control (dose: 12.5 mg/kg/injection, schedule: Q01DX005 (ip), vehicle: distilled water + Tween-80); 103 % of control (dose: 25.0 mg/kg/injection, schedule: Q01DX005 (ip), vehicle: distilled water + Tween-80); 108 % of control (dose: 50.0 mg/kg/injection, schedule: Q01DX005 (ip), vehicle: distilled water + Tween-80); 97 % of control (dose: 100.0 mg/kg/injection, schedule: Q01DX005 (ip), vehicle: distilled water + Tween-80); 97 % of control (dose: 200.0 mg/kg/injection, schedule: Q01DX005 (ip), vehicle: distilled water + Tween-80).
For `O=C1c2ccccc2C(=O)c2c(NCCC3CCCN4CCCCC34)cccc21` (centres undefined), the T/C reads like this: under setting [12], 94 % of control; under setting [13], 97 % of control; under setting [14], 96 % of control.

Values taken from PubChem BioAssay AID330 (DTP/NCI, 2004).
